Measurements: ChEMBL document CHEMBL3044959, “Feeding deterrents from Aconitum episcopale roots against the red flour beetle, Tribolium castaneum” (J Agric Food Chem, 2011)

Key:
Tribolium castaneum [1] = assay: Feeding deterrent activity against Tribolium castaneum (red flour beetle) adults using wheat flour assessed as consumption of diet at 300 ppm measured after 3 days relative to untreated control; type: functional
Tribolium castaneum [2] = assay: Feeding deterrent activity against Tribolium castaneum (red flour beetle) adults using wheat flour assessed as consumption of diet at 1000 ppm measured after 3 days relative to untreated control; type: functional
Tribolium castaneum [3] = assay: Feeding deterrent activity against Tribolium castaneum (red flour beetle) adults using wheat flour assessed as consumption of diet at 10 ppm measured after 3 days relative to untreated control; type: functional
Tribolium castaneum [4] = assay: Feeding deterrent activity against Tribolium castaneum (red flour beetle) adults using wheat flour assessed as consumption of diet at 30 ppm measured after 3 days relative to untreated control; type: functional
Tribolium castaneum [5] = assay: Feeding deterrent activity against Tribolium castaneum (red flour beetle) adults using wheat flour assessed as consumption of diet at 100 ppm measured after 3 days relative to untreated control; type: functional
Tribolium castaneum [6] = assay: Feeding deterrent activity against Tribolium castaneum (red flour beetle) adults using wheat flour assessed as inhibition of insect feeding measured after 3 days; type: functional, organism-based
[7] = Toxicity in ip dosed Mus musculus (mouse); type: organism-based; conditions: in vivo
[8] = Toxicity in iv dosed Mus musculus (mouse); type: organism-based; conditions: in vivo
[9] = Toxicity in po dosed Mus musculus (mouse); type: organism-based; conditions: in vivo

For `CCN1C[C@]2(COC)CC[C@H](OC)[C@]34C1[C@H]([C@H](OC)[C@H]23)[C@@]1(O)C[C@H](OC)[C@H]2C[C@@H]4[C@@H]1[C@H]2O` [CHASMANINE], the Activity (Tribolium castaneum [1]) was 69.59%, the Activity (Tribolium castaneum [2]) was 53.29% and the Activity (Tribolium castaneum [3]) was 90.55%. The Activity (Tribolium castaneum [4]) was 72.47% and the Activity (Tribolium castaneum [5]) was 61.64%.

With `CCN1C[C@]2(COC)CC[C@H](OC)[C@]34C1[C@H]([C@H](OC)[C@H]23)[C@@]1(OC(C)=O)C[C@H](OC)[C@@]2(O)C[C@@H]4[C@@H]1[C@H]2OC(=O)c1ccc(OC)cc1` [CRASSICAULINE A] the EC50 (Tribolium castaneum [6]) was 1134.5 ppm, the Activity (Tribolium castaneum [1]) was 53.83% and the Activity (Tribolium castaneum [2]) was 39.59%. For the same compound, the Activity (Tribolium castaneum [3]) was 97.81%, the Activity (Tribolium castaneum [4]) was 89.73% and the Activity (Tribolium castaneum [5]) was 78.36%.

In the case of `CCN1C[C@]2(C)CC[C@H](O)[C@@]34C5C[C@@H]6[C@@H](OC)C[C@@](O)(C5[C@H]6O)[C@@H](CC23)C14` (some centres not stated) [KARACOLINE], the EC50 (Tribolium castaneum [6]) is reported as 395.2 ppm, the LD50 [7] is reported as 298 mg/kg and the LD50 [8] is reported as 51.5 mg/kg. For the same compound, the Activity (Tribolium castaneum [1]) was 54.66%, the Activity (Tribolium castaneum [2]) was 43.84% and the Activity (Tribolium castaneum [3]) was 92.96%. It also gave an Activity (Tribolium castaneum [4]) of 77.95% and an Activity (Tribolium castaneum [5]) of 65.07%.

Compound `CCN1C[C@]2(C)CC[C@H](OC)[C@]34C1[C@H](C[C@H]23)[C@@]1(O)C[C@H](OC)[C@H]2C[C@@H]4[C@@H]1[C@H]2O` [SACHACONITINE] has an EC50 (Tribolium castaneum [6]) of 427.8 ppm, an Activity (Tribolium castaneum [1]) of 53.7% and an Activity (Tribolium castaneum [2]) of 38.08%. For the same compound, the Activity (Tribolium castaneum [3]) was 93.97%, the Activity (Tribolium castaneum [4]) was 71.78% and the Activity (Tribolium castaneum [5]) was 62.19%.

Work on `CCN1C[C@]2(COC)CC[C@H](OC)[C@]34C1[C@H](C[C@H]23)[C@@]1(O)C[C@H](OC)[C@H]2C[C@@H]4[C@@H]1[C@H]2O` [TALATISAMINE] yielded an EC50 (Tribolium castaneum [6]) of 342.8 ppm, an Activity (Tribolium castaneum [1]) of 58.63% and an Activity (Tribolium castaneum [2]) of 48.77%. It also gave an Activity (Tribolium castaneum [3]) of 92.47%, an Activity (Tribolium castaneum [4]) of 75.89% and an Activity (Tribolium castaneum [5]) of 60.82%.

For `CC(=O)O[C@@H]1C[C@H](O)[C@@]23CO[C@@H](O)[C@]1(C)[C@@H]2C[C@@H](O)[C@]1(C)[C@@H]3C(=O)[C@H](OC(C)=O)[C@@]2(C)[C@H](c3ccoc3)C[C@H]3O[C@]321` [TOOSENDANIN], the EC50 (Tribolium castaneum [6]) was 94.3 ppm.

For `CCN1C[C@]2(COC)[C@H](O)C[C@H](OC)[C@]34C1[C@H]([C@H](OC)[C@H]23)[C@@]1(OC(C)=O)C[C@H](OC)[C@@]2(O)C[C@@H]4[C@@H]1[C@H]2OC(=O)c1ccc(OC)cc1` [YUNACONITINE], the EC50 (Tribolium castaneum [6]) was 654.3 ppm, the LD50 [9] was 2.97 mg/kg and the Activity (Tribolium castaneum [3]) was 96.75%. For the same compound, the Activity (Tribolium castaneum [4]) was 85.48% and the Activity (Tribolium castaneum [5]) was 68.37%.
